Laboratory results as given in article PMC3983056 (PLoS Pathogens, 2014).

What was measured:
[1] = system: memory CD4 cells from HIV-infected patients; test: Viability of primary memory CD4 cells (Cell TiterGlo, 6 days); format: cell-based, human; conditions: memory CD4 cells, tested RMD concentrations (5 and 20 nM, 4 hours), day 6
Method: Cell viability was determined using a Cell TiterGlo reagent 6 days after the initiation of treatment and is expressed as a percentage of cell viability relative to control vehicle-treated memory CD4 cells from the same donors. The data represent mean +/− S.D. from three independent donors. (TIF) Click here for additional data file.

[2] = human, in vivo; cited from earlier work

C/C=C1\NC(=O)[C@H]2CSSCC/C=C/[C@H](CC(=O)N[C@H](C(C)C)C(=O)N2)OC(=O)[C@H](C(C)C)NC1=O [RMD, romidepsin]
cell viability [1]: did not substantially affect cell viability | most common adverse reactions [2]: thrombocytopenia, neutropenia, lymphopenia, nausea, and fatigue
